# In patent EP0414895A1, “OROTATE OF $g(a)-AMINO-$g(b)-PHENYL-BUTYRIC ACID” (NAUCHNO-PROIZVODSTVENNOE OBIEDINENIE "BIOLAR", priority 1989, dated 1990):
# Experiments:
# Format in all cases: in vivo
# Mäuse [1] = test: Anticonvulsant effect against Pikrotoxin, Bicucullin, Korazol, Thiosemikarbazid
# Text: Ausserdem wurde die krampflösende Wirkung der neuen Verbindung untersucht. Die Untersuchung wurde an männlichen weissen Mäusen bei der Einführung von Pikrotoxin, Bicucullin, Korazol, Thiosemikarbazid durchgeführt.
# Ratten = test: Habituation study over 6 months: motor activity of rats in actometer
# Text: Das Ausbleiben der Gewöhnung an die beanspruchte Verbindung wurde auch in den Rattenversuchen festgestellt, die im Laufe von 6 Monaten zur Bestimmung der motorischen Aktivität der Ratten durchgeführt wurden.
# Mäuse [2] = test: Hypoxia in barochamber (11000 m), survival
# Description: Nach einer der Methoden wurden die Mäuse in der Barokammer untergebracht, die für die Höhe von II000 m über dem Meeresspiegel gehoben wurde. Die Hebung wurde mit einer Geschwindigkeit von 50 m/s verwirklicht. Der atmosphärische Tiefdruck wurde mit Hilfe der elektrischen Vakuumpumpe geschaffen.
# Die beanspruchte Verbindung, Natriumoxybutyrat und Pyrazetam wurden 60 min vor dem Versuch enteral eingeführt. Der Schutzeffekt wurde nach der Überlebensdauer eingeschätzt. Die Angaben sind in Tabelle I0 angeführt.
# Mäuse [3] = test: Hypoxia in hermetically closed vessel, survival; details: closed vessel 80 cm³
# Text: Nach der zweiten Methode wurden die Mäuse in einem hermetisch verschlossenen Gefäss von 80 cm³ Inhalt untergebracht, dabei wurde die Luft nicht abgesaugt, und es wurden keine CO₂-Sorptionsmittel zugegeben. Die Prüfverbindungen wurden I Stunde vor dem Beginn des Versuchs intraperitoneal eingeführt (siehe Tabelle II).
# Mäuse [4] = test: Ethanol intoxication, survival
# Text: Es wurde auch der Einfluss der erfindungsgemässen Verbindung auf die durch Athanol erzeugte Intoxikation untersucht. In den Versuchen an Mäusen (in jedem Versuch wurde eine Gruppe von I0 Tieren untersucht) wurde die Überlebensdauer der Tiere bestimmt. […] Athanol wurde I Stunde nach der Einführung der neuen Verbindung verabreicht. Die Ergebnisse dieser Untersuchung sind in der Tabelle 2 dargestellt.
# [5] = male white mice, convulsants Pikrotoxin, Bicucullin, Korazol, Thiosemikarbazid
substance,measurement,setting,value
γ -Amino- β -phenylbuttersäureorotat [Erfindungsgemässe Verbindung],krampflösende Wirksamkeit,Mäuse [1]; Dosen von 50 bis 200 mg/kg,keine ausgeprägte krampflösende Wirksamkeit
same,"Anteil von Tieren, bei denen der Krampf beobachtet wurde",Mäuse [1]; [5],verringert nicht
same,Krampflatenzzeit,Mäuse [1]; [5],verlängert sicher
same,Zahl der Impulse im Aktometer innerhalb von 30 min,"Ratten; day 1, 25 mg/kg",183±24
same,Zahl der Impulse im Aktometer innerhalb von 30 min,"Ratten; day 1, 75 mg/kg",111±13
same,Zahl der Impulse im Aktometer innerhalb von 30 min,"Ratten; day 1, 200 mg/kg",15±16
same,Zahl der Impulse im Aktometer innerhalb von 30 min,"Ratten; day 35, 25 mg/kg",171±18
same,Zahl der Impulse im Aktometer innerhalb von 30 min,"Ratten; day 35, 75 mg/kg",129±14
same,Zahl der Impulse im Aktometer innerhalb von 30 min,"Ratten; day 35, 200 mg/kg",64±18
same,Zahl der Impulse im Aktometer innerhalb von 30 min,"Ratten; day 70, 25 mg/kg",126±27
same,Zahl der Impulse im Aktometer innerhalb von 30 min,"Ratten; day 70, 75 mg/kg",81±13
same,Zahl der Impulse im Aktometer innerhalb von 30 min,"Ratten; day 70, 200 mg/kg",43±15
same,Zahl der Impulse im Aktometer innerhalb von 30 min,"Ratten; day 85, 25 mg/kg",147±19
same,Zahl der Impulse im Aktometer innerhalb von 30 min,"Ratten; day 85, 75 mg/kg",109±17
same,Zahl der Impulse im Aktometer innerhalb von 30 min,"Ratten; day 85, 200 mg/kg",67±21
same,Zahl der Impulse im Aktometer innerhalb von 30 min,"Ratten; day 107, 25 mg/kg",138±20
same,Zahl der Impulse im Aktometer innerhalb von 30 min,"Ratten; day 107, 75 mg/kg",137±14
same,Zahl der Impulse im Aktometer innerhalb von 30 min,"Ratten; day 107, 200 mg/kg",79±17
same,Zahl der Impulse im Aktometer innerhalb von 30 min,"Ratten; day 120, 25 mg/kg",145±23
same,Zahl der Impulse im Aktometer innerhalb von 30 min,"Ratten; day 120, 75 mg/kg",118±28
same,Zahl der Impulse im Aktometer innerhalb von 30 min,"Ratten; day 120, 200 mg/kg",71±13
same,Zahl der Impulse im Aktometer innerhalb von 30 min,"Ratten; day 138, 25 mg/kg",168±32
same,Zahl der Impulse im Aktometer innerhalb von 30 min,"Ratten; day 138, 75 mg/kg",169±31
same,Zahl der Impulse im Aktometer innerhalb von 30 min,"Ratten; day 138, 200 mg/kg",103±13
same,Zahl der Impulse im Aktometer innerhalb von 30 min,"Ratten; day 154, 25 mg/kg",127±17
same,Zahl der Impulse im Aktometer innerhalb von 30 min,"Ratten; day 154, 75 mg/kg",181±31
same,Zahl der Impulse im Aktometer innerhalb von 30 min,"Ratten; day 154, 200 mg/kg",85±24
same,Zahl der Impulse im Aktometer innerhalb von 30 min,"Ratten; day 180, 25 mg/kg",154±30
same,Zahl der Impulse im Aktometer innerhalb von 30 min,"Ratten; day 180, 75 mg/kg",148±13
same,Zahl der Impulse im Aktometer innerhalb von 30 min,"Ratten; day 180, 200 mg/kg",117±18
same,Überlebensdauer,"Mäuse [2]; 50,0 mg/kg enteral 60 min before","6,2±1,4 min"
same,Überlebensdauer,"Mäuse [2]; 100,0 mg/kg enteral 60 min before","7,5±2,1 min"
same,Überlebensdauer,"Mäuse [2]; 200,0 mg/kg enteral 60 min before","15,2±1,8 min"
same,Überlebensdauer,"Mäuse [3]; 50,0 mg/kg i.p. 1 h before","10,8±1,2 min"
same,Überlebensdauer,"Mäuse [3]; 100,0 mg/kg i.p. 1 h before","15,2±1,4 min"
same,Überlebensdauer,"Mäuse [3]; 200,0 mg/kg i.p. 1 h before","27,6±2,6 min"
same,Überlebensdauer nach der Einführung von Äthanol,"Mäuse [4]; 50 mg/kg enteral chronic, 14 days + Äthylalkohol 11 ml/kg","283,8±16 sec"
same,Überlebensdauer nach der Einführung von Äthanol,Mäuse [4]; 50 mg/kg single + Äthylalkohol 11 ml/kg,"213,6±8 sec"
same,Verlängerung der Überlebensdauer der Tiere,"Mäuse [4]; chronic administration, ethanol intoxication",30%
